Assay results reported in US20260035355A1, “COMPOUND, PHARMACEUTICAL COMPOSITION COMPRISING SAME, AND USE THEREOF” (SHENZHEN ZHONGGE BIOLOGICAL TECHNOLOGY CO., LTD., priority 2022, published 2026).

Experiments:
[1] = test system: model animals; conditions: oral administration for three days; cited from earlier work
[2] = test system: healthy participants; conditions: Phase 1, healthy participants; cited from earlier work
[3] = Evaluation of cell membrane permeability; type: in vitro ADME; conditions: 10 μM, 120 minutes; for efflux ratio at 120 min, 10 μM: read-out: Efflux Ratio (Papp B to A/Papp A to B); for Papp A→B at 120 min, 10 μM / Papp B→A at 120 min, 10 μM: transport buffer (HBSS+BSA), 37° C.
Experimental: (§1) The test compounds were diluted from 10 mM stock solutions to a concentration of 10 μM using the transport buffer (HBSS+BSA) and applied to the apical or basolateral side of the cell monolayer. After the incubation at 37° C., 5% CO2 and 95% relative humidity for 120 minutes, the permeability of the test compounds in the A to B direction or the B to A direction was dually determined. In addition, the efflux ratio (Papp B to A/Papp A to B) of each compound was determined. The test substances and reference substances were quantitatively analyzed by the LC-MS/MS method based on the analyte/IS peak area ratio.

[4] = biological target: T1, eIF2B (Homo sapiens, UniProt P49770+Q9UI10); assay: ATF4-Luc assay (ATF4 luciferase reporter, thapsigargin-induced stress); type: cell-based; conditions: HEK293T/17-ATF4 uORF-Luc-Puro monoclonal cells, 50 nM thapsigargin, incubated for 6 hours
T1 construct: endogenous in cells; host or cells: HEK293T/17-ATF4 uORF-Luc-Puro monoclonal cells
T1 sequence (P49770 whole entry): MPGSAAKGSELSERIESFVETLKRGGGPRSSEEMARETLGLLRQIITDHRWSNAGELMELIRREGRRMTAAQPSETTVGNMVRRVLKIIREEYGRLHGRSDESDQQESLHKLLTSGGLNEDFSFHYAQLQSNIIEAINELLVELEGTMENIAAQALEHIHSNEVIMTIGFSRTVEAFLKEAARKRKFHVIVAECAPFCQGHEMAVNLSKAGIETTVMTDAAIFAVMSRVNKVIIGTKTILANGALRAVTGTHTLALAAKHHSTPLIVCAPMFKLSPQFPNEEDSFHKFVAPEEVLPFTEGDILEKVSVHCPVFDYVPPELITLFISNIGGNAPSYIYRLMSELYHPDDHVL
T1 sequence (Q9UI10 whole entry): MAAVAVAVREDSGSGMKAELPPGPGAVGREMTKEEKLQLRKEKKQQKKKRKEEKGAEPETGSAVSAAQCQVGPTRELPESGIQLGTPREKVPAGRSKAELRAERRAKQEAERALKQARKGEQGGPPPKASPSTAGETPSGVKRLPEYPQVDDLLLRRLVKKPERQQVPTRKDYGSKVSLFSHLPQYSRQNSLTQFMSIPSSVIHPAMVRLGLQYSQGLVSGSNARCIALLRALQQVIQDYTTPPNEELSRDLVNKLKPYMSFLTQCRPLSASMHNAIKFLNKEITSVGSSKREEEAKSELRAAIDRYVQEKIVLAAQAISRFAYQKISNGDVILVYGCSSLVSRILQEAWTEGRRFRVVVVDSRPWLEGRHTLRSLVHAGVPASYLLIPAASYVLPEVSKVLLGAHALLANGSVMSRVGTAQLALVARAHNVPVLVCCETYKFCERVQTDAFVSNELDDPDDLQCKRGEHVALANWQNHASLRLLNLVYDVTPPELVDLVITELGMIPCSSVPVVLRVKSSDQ
T1 sequence (Q14232 whole entry partner): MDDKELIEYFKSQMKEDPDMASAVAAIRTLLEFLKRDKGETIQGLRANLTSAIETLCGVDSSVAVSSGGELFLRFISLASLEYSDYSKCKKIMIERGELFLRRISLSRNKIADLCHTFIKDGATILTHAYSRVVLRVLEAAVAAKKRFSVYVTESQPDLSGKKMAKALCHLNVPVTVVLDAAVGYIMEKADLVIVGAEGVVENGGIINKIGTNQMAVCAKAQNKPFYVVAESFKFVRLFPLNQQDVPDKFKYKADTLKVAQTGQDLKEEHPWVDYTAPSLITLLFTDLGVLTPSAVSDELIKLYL
T1 sequence (Q9NR50 whole entry partner): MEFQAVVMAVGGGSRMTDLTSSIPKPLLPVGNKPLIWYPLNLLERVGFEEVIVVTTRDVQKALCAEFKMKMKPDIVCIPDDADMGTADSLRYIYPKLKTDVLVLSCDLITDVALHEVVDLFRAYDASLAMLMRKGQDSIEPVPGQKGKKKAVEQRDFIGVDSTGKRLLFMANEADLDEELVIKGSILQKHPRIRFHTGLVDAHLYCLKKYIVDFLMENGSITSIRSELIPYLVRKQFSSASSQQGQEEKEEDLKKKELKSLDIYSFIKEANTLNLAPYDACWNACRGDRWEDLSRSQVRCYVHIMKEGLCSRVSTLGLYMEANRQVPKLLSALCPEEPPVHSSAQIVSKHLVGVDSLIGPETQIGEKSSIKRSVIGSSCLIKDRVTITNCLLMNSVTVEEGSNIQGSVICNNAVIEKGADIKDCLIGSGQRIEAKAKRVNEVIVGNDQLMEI
T1 sequence (Q13144 whole entry partner): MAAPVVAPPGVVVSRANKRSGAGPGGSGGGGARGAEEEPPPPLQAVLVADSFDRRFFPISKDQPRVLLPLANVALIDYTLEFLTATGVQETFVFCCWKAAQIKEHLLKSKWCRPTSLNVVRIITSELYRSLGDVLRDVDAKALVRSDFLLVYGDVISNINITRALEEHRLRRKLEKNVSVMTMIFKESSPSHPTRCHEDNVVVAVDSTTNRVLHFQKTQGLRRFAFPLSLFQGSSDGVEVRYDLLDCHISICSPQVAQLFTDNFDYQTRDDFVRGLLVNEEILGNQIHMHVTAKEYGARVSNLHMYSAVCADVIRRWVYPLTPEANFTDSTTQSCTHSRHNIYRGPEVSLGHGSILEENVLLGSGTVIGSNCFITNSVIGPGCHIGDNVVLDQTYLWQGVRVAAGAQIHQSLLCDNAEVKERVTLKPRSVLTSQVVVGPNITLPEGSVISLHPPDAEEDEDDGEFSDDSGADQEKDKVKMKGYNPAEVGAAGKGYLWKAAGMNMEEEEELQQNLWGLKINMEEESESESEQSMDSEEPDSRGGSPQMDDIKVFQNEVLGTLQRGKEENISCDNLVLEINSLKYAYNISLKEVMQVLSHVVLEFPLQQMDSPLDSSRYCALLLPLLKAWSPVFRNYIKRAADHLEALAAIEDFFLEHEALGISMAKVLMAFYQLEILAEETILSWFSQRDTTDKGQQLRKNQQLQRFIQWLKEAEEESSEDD
Text: The ATF4 luciferase reporter plasmid consists of two parts, i.e., the 5′ untranslated region sequence of the ATF4 gene and the luciferase coding sequence. Specifically, the ATF4 5′ untranslated region sequence (NCBI database number BC022088.2) containing two upstream open reading frames (uORFs), and the firefly luciferase encoding gene were cloned into the pLVX-Puro vector (YouBio, VT1465). The packaging plasmids of lentivirus were psPAX2 (YouBio, VT1444) and pMD2.G (YouBio, VT1443). 650,000 HEK293T cells were seeded per well of a 6-well plate and cultured overnight in a 5% CO2 incubator. The cells were transfected with the packaged lentivirus for 48 hours and then centrifuged, and the supernatant was discarded. The medium was replaced and changed to the DMEM complete medium containing 0.8 μg/ml puromycin, and the cells were resuspended and then cultured. After one week of cell screening with puromycin, the surviving cells were HEK293T-ATF4 uORF-Luc-Puro polyclonal cells. 200 polyclonal cells were taken and subjected to limiting gradient dilution by using a 96-well plate, so as to obtain monoclonal cells.
The specific method for screening the monoclonal cells involves: placing the 200 polyclonal cells in well A1 of the 96-well plate; step one: performing gradient dilution from columns A1 to H1 at a ratio of 1:2; step two: performing gradient dilution from rows A to H, with each row from wells 1 to 12 at a ratio of 1:2; marking the wells with a theoretical cell number less than 0.5 and observing one by one under a microscope; marking the wells with only one cell; and culturing the cells for two weeks to obtain the monoclonal cells.
By using this cell line and the cold fluorescence readings, the translational regulation of ATF4 can be detected, and the activity of eIF2B activated by the compounds can be tested.
The specific experimental process is as follows: 6000 HEK293T/17-ATF4 uORF-Luc-Puro monoclonal cells were plated in a 384-well plate and allowed to adhere overnight. The test compounds were dissolved in DMSO and diluted to 10 different concentrations, which were respectively added together with 50 nM thapsigargin to the cell culture medium and incubated for 6 hours, wherein the thapsigargin was used to cause cellular stress and upregulate the protein translation of ATF4. Six hours after the addition, the cells were lysed using the One-Glo Luciferase Assay Kit (Promega #E6120), and then the cold fluorescence values were read using the LUM program of the EnVision 2104 plate reader.
EC50 was calculated based on the fluorescence values at 9 concentrations (0.1 nM, 0.3 nM, 1.0 nM, 3.0 nM, 10.0 nM, 30.0 nM, 100.0 nM, 300.0 nM and 1000.0 nM) of each compound and recorded in Table 1.
The ATF4 reporter expression was calculated as follows:
ATF4 reporter expression=(ave_sample-ave_vc)/(ave_pc-ave_vc)
where ave_vc represents the average signal value of negative controls, ave_pc represents the average signal value of positive controls, and ave_sample represents the average signal value of samples.
The dose-response curves were fitted, and the EC50 values were calculated.
The nonlinear regression log(inhibitor) vs. response—variable slope (four parameters) method of GraphPad 9 software was used to fit the corresponding relationship between the ATF4 reporter expression and the compound concentration.
The X-axis represents the log value of the compound concentration; and the Y-axis represents the ATF4 reporter expression.

[5] = Pharmacokinetic evaluation in mice; type: in vivo
Experimental: The test compounds were dissolved in vehicles to prepare clear solutions or homogeneous suspensions. Three mice were placed in each group and received an intravenous (IV) administration via the tail vein at 1 mg/kg and an oral (PO) administration at 30 mg/kg. Blood samples were collected at 0.083 h, 0.25 h, 0.5 h, 1 h, 2 h, 4 h, 8 h, and 24 h after the intravenous administration, and at 0.25 h, 0.5 h, 1 h, 2 h, 4 h, 6 h, 8 h, and 24 h after the oral administration. Plasma samples were centrifuged, and the supernatant was collected to prepare samples, which were then quantitatively analyzed by LC/MS/MS.

[6] = test system: cell monolayer; assay: Evaluation of cell membrane permeability; type: in vitro ADME
Experimental: as §1

[7] = test system: mouse models; conditions: cited from earlier work

EC50 [4]	Compound	other results
	NC(CO)(CO)CO.O=C(COc1ccc(Cl)c(F)c1)NC12CCC(NC(=O)COc3ccc(Cl)c(F)c3)(CC1)[C@@H](OCOP(=O)([O-])O)C2.[Na+] [ABBV-CLS-7262]	brain function (in words) [1]: restored to youthful levels
	O=C(COc1ccc(Cl)cc1)NC12CC(c3nnc([C@H]4C[C@@H](OC(F)(F)F)C4)o3)(C1)C2 [DNL-343]	safety and tolerability (in words) [2]: demonstrated its safety and tolerability
	C[C@H]1O[C@@H](O[C@H]2[C@@H](O)C[C@H](O[C@H]3[C@@H](O)C[C@H](O[C@H]4CC[C@@]5(C)[C@H](CC[C@@H]6[C@@H]5C[C@@H](O)[C@]5(C)[C@@H](C7=CC(=O)OC7)CC[C@]65O)C4)O[C@@H]3C)O[C@@H]2C)C[C@H](O)[C@@H]1O [Digoxin]	efflux ratio at 120 min, 10 μM [3]: 44.7; Papp A→B at 120 min, 10 μM [3]: 0.25 ×10⁻⁶ cm/s; Papp B→A at 120 min, 10 μM [3]: 11.2 ×10⁻⁶ cm/s
> 100 nM	O=C(COc1ccc(Cl)c(F)c1)NC1CC12CCN(C(=O)c1cnc(C(F)F)cn1)CC2 (stereo not drawn) [I-1]	
> 100 nM	O=C(COc1ccc(Cl)c(F)c1)NC1CC12CCN(C(=O)c1cc3cc(Cl)ccc3o1)CC2 (stereo not drawn) [I-2]	
> 100 nM	O=C(COc1ccc(Cl)c(F)c1)NC1CC12CCN(C(=O)[C@H]1CNc3cc(Cl)ccc3O1)CC2 (stereo partly drawn) [I-3]	
> 100 nM	CN1C[C@H](C(=O)N2CCC3(CC2)CC3NC(=O)COc2ccc(Cl)c(F)c2)Oc2ccc(Cl)cc21 (stereo partly drawn) [I-4]	
> 100 nM	O=C(COc1ccc(Cl)c(F)c1)NC1CC12CCN(NC(=O)COc1ccc(Cl)c(F)c1)CC2 (stereo not drawn) [I-5]	
> 100 nM	O=C(COc1ccc(Cl)c(F)c1)NC1CC12CCN(NC(=O)c1cc3cc(Cl)ccc3o1)CC2 (stereo not drawn) [I-6]	
> 100 nM	O=C(COc1ccc(Cl)c(F)c1)NC1CC12CCN(NC(=O)[C@H]1CNc3cc(Cl)ccc3O1)CC2 (stereo partly drawn) [I-7]	
> 100 nM	CN1C[C@H](C(=O)NN2CCC3(CC2)CC3NC(=O)COc2ccc(Cl)c(F)c2)Oc2ccc(Cl)cc21 (stereo partly drawn) [I-8]	
> 100 nM	O=C(NC1CC12CCN(C(=O)c1cc3cc(Cl)ccc3o1)CC2)c1cc2cc(Cl)ccc2o1 (stereo not drawn) [I-9]	
10 to 100 nM	O=C(NC1CC12CCN(NC(=O)c1cc3cc(Cl)ccc3o1)CC2)c1cc2cc(Cl)ccc2o1 (stereo not drawn) [I-10]	
> 100 nM	O=C(COc1ccc(Cl)c(F)c1)NC1COC2(C1)CN(C(=O)c1cnc(C(F)F)cn1)C2 (stereo not drawn) [II-10]	
> 100 nM	O=C(COc1ccc(Cl)c(F)c1)NC1COC2(C1)CN(C(=O)COc1ccc(Cl)c(F)c1)C2 (stereo not drawn) [II-11]	
10 to 100 nM	O=C(COc1ccc(Cl)c(F)c1)NC1COC2(C1)CN(C(=O)c1cc3cc(Cl)ccc3o1)C2 (stereo not drawn) [II-12]	
> 100 nM	O=C(COc1ccc(Cl)c(F)c1)NC1COC2(C1)CN(C(=O)[C@H]1CNc3cc(Cl)ccc3O1)C2 (stereo partly drawn) [II-13]	
> 100 nM	CN1C[C@H](C(=O)N2CC3(CC(NC(=O)COc4ccc(Cl)c(F)c4)CO3)C2)Oc2ccc(Cl)cc21 (stereo partly drawn) [II-14]	
< 10 nM	O=C(COc1ccc(Cl)c(F)c1)NC1CC2(C1)CC(c1nnc(N3CC(OC(F)(F)F)C3)o1)C2 (stereo not drawn) [III-1]	pharmacokinetic properties in mice (in words) ([5]; mouse, in vivo): excellent pharmacokinetic properties in mice; AUC(0-inf) ([5]; plasma, mouse IV 1 mg/kg): 2230 ng·h/mL; C0 ([5]; plasma, mouse IV 1 mg/kg): 1340 ng/mL; clearance ([5]; plasma, mouse IV 1 mg/kg): 7.5 mL/min/kg; half-life ([5]; plasma, mouse IV 1 mg/kg): 2.07 h; Vd ([5]; plasma, mouse IV 1 mg/kg, read-out: Vss): 1.18 L/kg; AUC(0-inf) ([5]; plasma, mouse PO 30 mg/kg): 111000 ng·h/mL; Cmax ([5]; plasma, mouse PO 30 mg/kg): 21500 ng/mL; Tmax ([5]; plasma, mouse PO 30 mg/kg): 1.33 h; bioavailability ([5]; plasma, mouse PO 30 mg/kg): 177%; half-life ([5]; plasma, mouse PO 30 mg/kg): 1.93 h; P-glycoprotein substrate (in words) [6]: not P-glycoprotein substrates; cell membrane permeability (in words) [6]: good cell membrane permeability; efflux ratio at 120 min, 10 μM [3]: 1.05; Papp A→B at 120 min, 10 μM [3]: 17.7 ×10⁻⁶ cm/s; Papp B→A at 120 min, 10 μM [3]: 18.6 ×10⁻⁶ cm/s
> 100 nM	O=C(COc1ccc(Cl)c(F)c1)NC1CC2(C1)CC(NC(=O)COc1ccc(Cl)c(F)c1)C2 (stereo not drawn) [III-10]	
> 100 nM	O=C(COc1ccc(Cl)c(F)c1)NC1CC2(C1)CC(NC(=O)c1cnc(C(F)F)cn1)C2 (stereo not drawn) [III-11]	

EC50 [4]	Compound	other results
> 100 nM	CN1CC(C(=O)NC2CC3(CC(NC(=O)COc4ccc(Cl)c(F)c4)C3)C2)Oc2ccc(Cl)cc21 (stereo not drawn) [III-12]	
10 to 100 nM	O=C(COc1ccc(Cl)c(F)c1)NC1CC2(C1)CC(NC(=O)C1CNc3cc(Cl)ccc3O1)C2 (stereo not drawn) [III-13]	
	O=C(COc1ccc(Cl)cc1)NC1CCC(NC(=O)COc2ccc(Cl)cc2)CC1 (stereo not drawn) [ISRIB]	long-term memory (in words) [7]: improve long-term memory
10 to 100 nM	O=C(COc1ccc(Cl)c(F)c1)NC1CC2(CCN(c3nnc(N4CC(OC(F)(F)F)C4)o3)CC2)C1 [IV-1]	
10 to 100 nM	O=C(COc1ccc(Cl)c(F)c1)NC1CC2(CCN(C(=O)COc3ccc(Cl)c(F)c3)CC2)C1 [IV-11]	
> 100 nM	O=C(COc1ccc(Cl)c(F)c1)NC1CC2(CCN(C(=O)c3cnc(C(F)F)cn3)CC2)C1 [IV-12]	
< 10 nM	O=C(COc1ccc(Cl)c(F)c1)NC1CC2(CCN(C(=O)[C@H]3CNc4cc(Cl)ccc4O3)CC2)C1 [IV-13]	
10 to 100 nM	O=C(COc1ccc(Cl)c(F)c1)NC1CC2(CCN(c3nnc(-c4ccc(Cl)cc4)o3)CC2)C1 [IV-14]	
> 100 nM	CN1C[C@H](C(=O)N2CCC3(CC2)CC(NC(=O)COc2ccc(Cl)c(F)c2)C3)Oc2ccc(Cl)cc21 [IV-15]	
> 100 nM	O=C(CO[C@H]1C[C@@H](OC(F)(F)F)C1)NC1CC2(CCN(C(=O)c3cc4cc(Cl)ccc4o3)CC2)C1 [IV-16]	
> 100 nM	O=C(CO[C@H]1C[C@@H](OC(F)(F)F)C1)NC1CC2(CCN(C(=O)COc3ccc(Cl)c(F)c3)CC2)C1 [IV-17]	
10 to 100 nM	O=C(NC1CC2(CCN(C(=O)[C@@H]3CNc4cc(Cl)ccc4O3)CC2)C1)[C@H]1CNc2cc(Cl)ccc2O1 [IV-18]	
10 to 100 nM	O=C(COc1ccc(Cl)c(F)c1)NC1CC2(CCN(C(=O)c3cc4cc(Cl)ccc4o3)CC2)C1 [IV-19]	
< 10 nM	O=C(NC1CC2(CCN(C(=O)c3cc4cc(Cl)ccc4o3)CC2)C1)c1cc2cc(Cl)ccc2o1 [IV-20]	
	CC(C)NCC(O)COc1cccc2ccccc12 (stereo not drawn) [Propranolol]	Papp A→B at 120 min, 10 μM [3]: 32.4 ×10⁻⁶ cm/s; Papp B→A at 120 min, 10 μM [3]: 20.1 ×10⁻⁶ cm/s
10 to 100 nM	O=C(COc1ccc(Cl)c(F)c1)NC1CCC2(CC1)CN(C(=O)COc1ccc(Cl)c(F)c1)C2 [V-10]	
> 100 nM	O=C(COc1ccc(Cl)c(F)c1)NC1CCC2(CC1)CN(C(=O)c1cnc(C(F)F)cn1)C2 [V-11]	
> 100 nM	O=C(COc1ccc(Cl)c(F)c1)NC1CCC2(CC1)CN(C(=O)C1CNc3cc(Cl)ccc3O1)C2 (stereo not drawn) [V-12]	
10 to 100 nM	O=C(COc1ccc(Cl)c(F)c1)NC1CC2(CCC(c3nnc(N4CC(OC(F)(F)F)C4)o3)CC2)C1 (stereo not drawn) [VI-1]	
< 10 nM	O=C(COc1ccc(Cl)c(F)c1)NC1CCC(c2nnc(N3CC(OC(F)(F)F)C3)o2)C2(CC2)C1 (stereo not drawn) [VIII-1]	
